Assay results taken from ChEMBL document CHEMBL5325395, “Design, synthesis and anti-ovarian cancer activities of thieno[2,3-d]pyrimidine based chimeric BRD4 inhibitor/nitric oxide-donator” (Eur J Med Chem, 2023).
Calls of active or inactive are those of the source. The calls are words filed in the database; no cut-off is given here.

Assays:
SK-OV-3 [1] = assay: Antitumor activity against human SK-OV-3 cells xenografted in BALB/c nude mouse assessed as reduction in Ki-67 expression at 30 mg/kg, ip administered for 19 days by immunohistochemical analysis; assay type: functional, organism-based; details: time 19.0 day
SK-OV-3 [2] = assay: Induction of autophagy in human SK-OV-3 cells assessed as GFP-LC3 aggregation incubated for 24 hrs by transmission electron microscopy analysis; assay type: functional, cell-based
[3] = molecular target: T1, Bromodomain-containing protein 4 (Homo sapiens, UniProt O60885); assay: Binding affinity to BRD4 BD1 (unknown origin) by thermal denaturation assay
ES-2 = assay: Antiproliferative activity against human ES2 cells assessed as reduction in cell viability incubated for 24 hrs by CCK8 assay; assay type: functional, cell-based; details: ES-2, 24 h
SK-OV-3 [4] = assay: Antiproliferative activity against human SK-OV-3 cells assessed as reduction in cell viability incubated for 24 hrs by CCK8 assay; assay type: functional, cell-based; details: SK-OV-3, 24 h
[5] = molecular target: T2, Bromodomain-containing protein 2 (Homo sapiens, UniProt P25440); assay: Inhibition of BRD2 bromodomain 1 (unknown origin) by Alphascreen based method
T2 sequence (P25440 whole entry): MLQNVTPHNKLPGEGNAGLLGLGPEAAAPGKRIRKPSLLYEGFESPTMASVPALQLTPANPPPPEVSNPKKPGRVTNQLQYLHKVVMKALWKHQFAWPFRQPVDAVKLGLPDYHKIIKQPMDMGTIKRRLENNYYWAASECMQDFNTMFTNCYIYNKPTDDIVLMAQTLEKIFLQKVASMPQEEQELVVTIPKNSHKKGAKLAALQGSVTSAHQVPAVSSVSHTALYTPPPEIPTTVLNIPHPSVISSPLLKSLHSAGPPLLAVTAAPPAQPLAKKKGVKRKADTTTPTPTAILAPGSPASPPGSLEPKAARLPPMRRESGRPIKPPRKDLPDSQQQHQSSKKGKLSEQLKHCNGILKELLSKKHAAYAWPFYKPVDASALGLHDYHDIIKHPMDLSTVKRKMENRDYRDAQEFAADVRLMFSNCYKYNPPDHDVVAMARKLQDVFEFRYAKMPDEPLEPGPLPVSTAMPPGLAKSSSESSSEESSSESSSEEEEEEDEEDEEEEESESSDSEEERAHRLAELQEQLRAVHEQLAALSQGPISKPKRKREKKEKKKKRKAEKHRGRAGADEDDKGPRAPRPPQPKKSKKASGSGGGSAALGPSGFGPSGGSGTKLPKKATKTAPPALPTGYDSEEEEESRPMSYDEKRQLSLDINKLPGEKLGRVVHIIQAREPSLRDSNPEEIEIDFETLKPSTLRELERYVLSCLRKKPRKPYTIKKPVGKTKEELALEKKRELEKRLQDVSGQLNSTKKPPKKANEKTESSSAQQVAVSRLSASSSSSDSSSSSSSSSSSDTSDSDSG

[6] = molecular target: T1, Bromodomain-containing protein 4; assay: Inhibition of BRD4 in human SK-OV-3 cells assessed as reduction in BRD4 protein expression by Western blot analysis; assay type: cell-based
SK-OV-3 [7] = assay: Induction of apoptosis in human SK-OV-3 cells assessed as upregulation of cleaved caspase 3 protein expression at 1 to 2 uM incubated for 24 hrs by Western blotting analysis; assay type: functional, cell-based; details: dose 1-2 µM
SK-OV-3 [8] = assay: Induction of autophagy in human SK-OV-3 cells assessed as increase in autophagosomes at 2 umol/L incubated for 24 hrs by immunofluorescence analysis; assay type: functional, cell-based; details: dose 2.0 µmol/L
[9] = Induction of NO release in phosphate buffer at 1 hr by Griess reagent based spectrophotometer analysis; assay type: functional
[10] = Induction of NO release in phosphate buffer at 2 hrs by Griess reagent based spectrophotometer analysis; assay type: functional
SK-OV-3 [11] = assay: Induction of autophagy in human SK-OV-3 cells assessed as reduction in GFP-LC3 labeled lysosomes at 2 umol/L incubated for 24 hrs by immunofluorescence analysis; assay type: functional, cell-based; details: dose 2.0 µmol/L
SK-OV-3 [12] = assay: Induction of apoptosis in human SK-OV-3 cells assessed as upregulation of Beclin1 protein expression at 1 to 2 uM incubated for 24 hrs by Western blotting analysis; assay type: functional, cell-based; details: dose 1-2 µM
SK-OV-3 [13] = assay: Induction of apoptosis in human SK-OV-3 cells assessed as late apoptotic cells at 2 uM incubated for 24 hrs by Annexin V and PI staining based flow cytometry analysis (reference value: 0 %); assay type: functional
[14] = Induction of NO release in phosphate buffer at 4 hrs by Griess reagent based spectrophotometer analysis; assay type: functional
SK-OV-3 [15] = assay: Induction of apoptosis in human SK-OV-3 cells assessed as early apoptotic cells at 2 uM incubated for 24 hrs by Annexin V and PI staining based flow cytometry analysis (reference value: 0.020 %); assay type: functional
[16] = molecular target: T2, Bromodomain-containing protein 2; assay: Binding affinity to BRD2 BD1 (unknown origin) by thermal denaturation assay
SK-OV-3 [17] = assay: Induction of autophagy in human SK-OV-3 cells assessed as GFP-LC3 aggregation incubated for 24 hrs by confocal fluorescence microscopy analysis; assay type: functional, cell-based
[18] = molecular target: T1, Bromodomain-containing protein 4; assay: Inhibition of BRD4 bromodomain 1 (unknown origin) by Alphascreen based method
[19] = Induction of NO release in phosphate buffer at 3 hrs by Griess reagent based spectrophotometer analysis; assay type: functional
[20] = molecular target: T2, Bromodomain-containing protein 2; assay: Inhibition of BRD2 bromodomain 2 (unknown origin) by Alphascreen based method
[21] = molecular target: T1, Bromodomain-containing protein 4; assay: Inhibition of BRD4 (unknown origin)
[22] = molecular target: T2, Bromodomain-containing protein 2; assay: Binding affinity to BRD2 BD2 (unknown origin) by thermal denaturation assay
SK-OV-3 [23] = assay: Induction of apoptosis in human SK-OV-3 cells assessed as viable cells at 1 uM incubated for 24 hrs by Annexin V and PI staining based flow cytometry analysis (reference value: 99.8 %); assay type: functional; details: read-out: Activity
SK-OV-3 [24] = assay: Antitumor activity against human SK-OV-3 cells xenografted in Balb/c nude mouse assessed as tumor growth inhibition at 30 mg/kg, ip administered for 19 days; assay type: functional, organism-based; details: time 19.0 day
SK-OV-3 [25] = assay: Induction of apoptosis in human SK-OV-3 cells assessed as necrotic cells at 2 uM incubated for 24 hrs by Annexin V and PI staining based flow cytometry analysis (reference value: 0.15 %); assay type: functional
SK-OV-3 [26] = assay: Induction of apoptosis in human SK-OV-3 cells assessed as upregulation of LC3II/I protein expression at 1 to 2 uM incubated for 24 hrs by Western blotting analysis; assay type: functional, cell-based; details: dose 1-2 µM
SK-OV-3 [27] = assay: Antitumor activity against human SK-OV-3 cells xenografted in BALB/c nude mouse assessed as increase in tumor cell apoptosis at 30 mg/kg, ip administered for 19 days by TUNEL staining based analysis; assay type: functional, organism-based; details: time 19.0 day
[28] = molecular target: T3, Bromodomain-containing protein 3 (Homo sapiens, UniProt Q15059); assay: Inhibition of BRD3 bromodomain 2 (unknown origin) by Alphascreen based method
T3 sequence (Q15059 whole entry): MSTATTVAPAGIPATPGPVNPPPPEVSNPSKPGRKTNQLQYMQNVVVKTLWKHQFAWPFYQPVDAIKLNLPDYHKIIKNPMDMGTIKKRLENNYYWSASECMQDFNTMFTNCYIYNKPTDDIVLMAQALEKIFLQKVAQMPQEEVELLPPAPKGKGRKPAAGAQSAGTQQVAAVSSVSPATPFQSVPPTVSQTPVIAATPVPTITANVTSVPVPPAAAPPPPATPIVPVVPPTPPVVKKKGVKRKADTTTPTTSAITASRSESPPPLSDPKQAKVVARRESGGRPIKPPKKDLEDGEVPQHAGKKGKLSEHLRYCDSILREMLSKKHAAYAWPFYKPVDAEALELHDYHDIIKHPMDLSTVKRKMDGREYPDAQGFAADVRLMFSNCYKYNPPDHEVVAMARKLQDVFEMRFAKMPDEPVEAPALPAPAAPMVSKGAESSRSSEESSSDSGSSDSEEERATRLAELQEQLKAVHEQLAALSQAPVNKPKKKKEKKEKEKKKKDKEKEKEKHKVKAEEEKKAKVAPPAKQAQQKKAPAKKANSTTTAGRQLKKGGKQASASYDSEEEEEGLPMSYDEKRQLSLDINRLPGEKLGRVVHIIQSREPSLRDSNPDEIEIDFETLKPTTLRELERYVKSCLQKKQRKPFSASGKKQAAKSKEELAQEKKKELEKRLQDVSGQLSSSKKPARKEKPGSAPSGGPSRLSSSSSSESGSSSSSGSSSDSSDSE

Mus musculus = assay: In vivo inhibition of BRD4 in BALB/c nude mouse xenografted with human SK-OV-3 cells assessed as reduction in c-Myc expression at 30 mg/kg, ip administered for 19 days by immunohistochemical analysis; assay type: functional, organism-based; details: time 19.0 day
[29] = Induction of NO release in phosphate buffer at 24 hrs by Griess reagent based spectrophotometer analysis; assay type: functional
[30] = molecular target: Bromodomain testis-specific protein (Homo sapiens, UniProt Q58F21); assay: Inhibition of BRDT bromodomain 1 (unknown origin) by Alphascreen based method
[31] = Toxicity in BALB/c mouse xenografted with human SK-OV-3 cells assessed as change in body weight at 30 mg/kg, ip administered for 19 days; assay type: organism-based; details: in vivo, 456 h, time 19 day
SK-OV-3 [32] = assay: Induction of apoptosis in human SK-OV-3 cells assessed as late apoptotic cells at 1 uM incubated for 24 hrs by Annexin V and PI staining based flow cytometry analysis (reference value: 0 %); assay type: functional
SK-OV-3 [33] = assay: Induction of apoptosis in human SK-OV-3 cells assessed as upregulation of p62/SQSTM1 protein expression at 1 to 2 uM incubated for 24 hrs by Western blotting analysis; assay type: functional, cell-based; details: dose 1-2 µM
SK-OV-3 [34] = assay: Induction of autophagy in human SK-OV-3 cells assessed as appearance of autophagic vacuoles incubated for 24 hrs by transmission electron microscopy analysis; assay type: functional, cell-based
OVCAR-3 = assay: Antiproliferative activity against human OVCAR-3 cells assessed as reduction in cell viability incubated for 24 hrs by CCK8 assay; assay type: functional, cell-based; details: OVCAR-3, 24 h
[35] = molecular target: T1, Bromodomain-containing protein 4; assay: Binding affinity to BRD4 BD2 (unknown origin) by thermal denaturation assay
SK-OV-3 [36] = assay: Induction of autophagy in human SK-OV-3 cells assessed as appearance of autophagic vacuoles incubated for 24 hrs by confocal fluorescence microscopy analysis; assay type: functional, cell-based
SW626 = assay: Antiproliferative activity against human SW626 cells assessed as reduction in cell viability incubated for 24 hrs by CCK8 assay; assay type: functional, cell-based; details: SW626, 24 h
A2780 = assay: Antiproliferative activity against human A2780 cells assessed as reduction in cell viability incubated for 24 hrs by CCK8 assay; assay type: functional, cell-based; details: A2780, 24 h
[37] = Induction of NO release in phosphate buffer at 6 hrs by Griess reagent based spectrophotometer analysis; assay type: functional
[38] = Induction of NO release in phosphate buffer at 0.5 hrs by Griess reagent based spectrophotometer analysis; assay type: functional
SK-OV-3 [39] = assay: Induction of autophagy in human SK-OV-3 cells assessed as reduction in LAMP1 labeled lysosomes at 2 umol/L incubated for 24 hrs by immunofluorescence analysis; assay type: functional, cell-based; details: dose 2.0 µmol/L
SK-OV-3 [40] = assay: Induction of apoptosis in human SK-OV-3 cells assessed as viable cells at 2 uM incubated for 24 hrs by Annexin V and PI staining based flow cytometry analysis (reference value: 99.8 %); assay type: functional; details: read-out: Activity
[41] = molecular target: T1, Bromodomain-containing protein 4; assay: Inhibition of BRD4 in human SK-OV-3 cells assessed as reduction in c-Myc protein expression by Western blot analysis; assay type: cell-based
[42] = molecular target: T3, Bromodomain-containing protein 3; assay: Inhibition of BRD3 bromodomain 1 (unknown origin) by Alphascreen based method
[43] = molecular target: T1, Bromodomain-containing protein 4; assay: Inhibition of BRD4 bromodomain 2 (unknown origin) by Alphascreen based method
SK-OV-3 [44] = assay: Induction of apoptosis in human SK-OV-3 cells assessed as downregulation of Bcl-2 protein expression at 1 to 2 uM incubated for 24 hrs by Western blotting analysis; assay type: functional, cell-based; details: dose 1-2 µM
SK-OV-3 [45] = assay: Induction of apoptosis in human SK-OV-3 cells assessed as necrotic cells at 1 uM incubated for 24 hrs by Annexin V and PI staining based flow cytometry analysis (reference value: 0.15 %); assay type: functional
SK-OV-3 [46] = assay: Induction of apoptosis in human SK-OV-3 cells assessed as upregulation of cytochrome-C protein expression at 1 to 2 uM incubated for 24 hrs by Western blotting analysis; assay type: functional, cell-based; details: dose 1-2 µM
SK-OV-3 [47] = assay: Induction of apoptosis in human SK-OV-3 cells assessed as early apoptotic cells at 1 uM incubated for 24 hrs by Annexin V and PI staining based flow cytometry analysis (reference value: 0.020 %); assay type: functional

Kd [3]: 0.419 µM
IC50 (SK-OV-3 [4]): 1.38 µM
IC50 [5]: 15.9 µM
inhibition [6]: Active
Kd [16]: 7.43 µM
IC50 [18]: 0.82 µM
IC50 [20]: > 20 µM
IC50 [21]: 0.82 µM
Kd [22]: 17.5 µM
IC50 [28]: > 20 µM
IC50 [30]: > 20 µM
IC50 (OVCAR-3): 2.69 µM
Kd [35]: 0.686 µM
IC50 (SW626): 8.47 µM
IC50 (A2780): 3.44 µM
inhibition [41]: Active
IC50 [42]: > 20 µM
IC50 [43]: 1.94 µM
Structure (SMILES): Cc1cc(-c2nc3sc4c(c3c(=O)[nH]2)CCN(C)C4)cc(C)c1OCC(=O)OCc1c(-c2ccccc2)no[n+]1[O-]
Activity (SK-OV-3 [1]): Active
Activity (SK-OV-3 [2]): Active
IC50 (ES-2): 3.44 µM
Activity (SK-OV-3 [7]): Active
Activity (SK-OV-3 [8]): Active
Activity [9]: 0.055 µmol/L
Activity [10]: 0.054 µmol/L
Activity (SK-OV-3 [11]): Active
Activity (SK-OV-3 [12]): Active
Activity (SK-OV-3 [13]): 5.21%
Activity [14]: 0.095 µmol/L
Activity (SK-OV-3 [15]): 8.84%
Activity (SK-OV-3 [17]): Active
Activity [19]: 0.072 µmol/L
viability at 1 µM (SK-OV-3 [23]): 88.9%
Activity (SK-OV-3 [24]): Active
Activity (SK-OV-3 [25]): 1.03%
Activity (SK-OV-3 [26]): Active
Activity (SK-OV-3 [27]): Active
inhibition (Mus musculus): Active
Activity [29]: 0.258 µmol/L
Activity [31]: Non-Toxic
Activity (SK-OV-3 [32]): 4.5%
Activity (SK-OV-3 [33]): Active
Activity (SK-OV-3 [34]): Active
Activity (SK-OV-3 [36]): Active
Activity [37]: 0.111 µmol/L
Activity [38]: 0.061 µmol/L
Activity (SK-OV-3 [39]): Active
viability at 2 µM (SK-OV-3 [40]): 85.1%
Activity (SK-OV-3 [44]): Active
Activity (SK-OV-3 [45]): 1.2%
Activity (SK-OV-3 [46]): Active
Activity (SK-OV-3 [47]): 6.15%
